Measured values as given in paper PMC10492782, “Exploiting the aggregation propensity of beta-lactamases to design inhibitors that induce enzyme misfolding” (Nature Communications, 2023).
Where “and” joins values, the source holds several entries; their conditions need not be identical. Identical values can stand only once.

Assays:
[1] = target: T1, recombinantly purified TEM-1 (Escherichia coli, UniProt P62593); type: biochemical, E. coli; details: pFTAA fluorescence kinetics
T1 construct: His-tag (N); TEV cleavage site (N); made in house; host or cells: E. coli BL21 (DE3)
Protocol: Fig. 4 Aggregation kinetics of TEM and SHV proteins and peptides. A Measurements of the hydrodynamic radius by Dynamic Light Scattering of 50 μM TEM3.2 in buffer alone, or in the presence of LPS or polyphosphate (PolyP). […] C Transmission Electron Micrograph of 50 μM TEM 3.2 incubated for 24 h in the same buffer as A with polyP, negatively stained with 2% (w/v) uranyl acetate. A single representative image is shown. […] Three replicates are shown for each condition. E Aggregation kinetics using pFTAA fluorescence emission of recombinantly purified TEM-1, in the presence of vehicle, or TEM 3.2 peptin, as well as peptin-only control. F Similar as in E, but using an off-target Pept-In, based on an APR sequence of beta-galactosidase. G Similar to E, but now using a previously published off-target Pept-In, based on an APR of HcaB. The plots are the results of a single experiment, all replicates are shown. Source data are provided as a Source Data file.

[2] = tested on: E. coli UZ_TEM104; test: FACS with pFTAA (aggregation) and propidium iodide (cell death); type: cell-based, Escherichia coli
Protocol: Fig. 6 Uptake and inclusion body formation upon peptide treatment. Fluorescence-activated cell-sorting (FACS) (A) of E. coli strain UZ_TEM104 mixed 50–50% with the same strain after heat-inactivation. The cells were stained with pFTAA to monitor aggregation and propidium iodide (PI) to monitor cell permeabilization associated with cell death. 10^6 cells were analyzed for the plot. […] B Similar FACS analysis as in A, but with a sample of live bacteria only. […] Note: the horizontal and vertical lines correspond to the gatings used to obtain the quantifications shown in the corners of each image.
Treated bacteria were washed with PBS buffer two times. One microliter of PI (Invitrogen) was added to the bacteria and incubated for 5 min. The bacteria were counted by FACS to reach 40000 events. To correlate the activity of the peptides with cell death, the fluorescence intensity was measured in two channels using the Gallios^TM Flow Cytometer (Beckman Coulter, USA), PI: excitation 536 nm and emission 617 nm, FITC: excitation 490 nm and emission 525 nm. Heated bacteria at 90 °C for 10 min were used as PI-positive control.
The bacterial cultures were washed with PBS, and the number of bacteria was adjusted to 10^8–10^9 cells/mL. […] Then, cells were treated with LCO dyes (pFTAA; Amytacker^TM680 or Amytacker^TM545: final concentration of 0.5 µM; Ebba Biotech, Sweden) for at least 90 min. The absorption, emission, and excitation spectra for each dye were measured based on the standard Ebbabiotec advice (ebbabiotech.com).

[3] = tested on: HeLa cells; test: CellTiter Blue cell viability; details: 24 h, 37 °C, DMEM without serum
Protocol: Fig. 7 Evaluation of in vivo use of peptides that induce the aggregation of TEM beta-lactamase. A Lysis of human erythrocytes (hemolysis) was assessed in the presence of the indicated concentrations of TEM3.2 for 2 h at 37 °C, and normalized to the value obtained with 1% of the detergent triton. […] B Cell viability using the CellTiter Blue assay of HeLa cells treated for 24 h with the indicated concentrations TEM 3.2 at 37 °C. […] DAPI (4’,6-diamidino-2-phenylindole) is blue, while CellMask is red. D Experimental workflow of the in vivo model used in this study. E–G Bacterial load of indicated organs of female C57BL/6JAX mice with a urinary tract infection with E. coli strain UZ_TEM104, treated with 30 mg/kg penicillin (oral) as well 10 mg/kg tazobactam (oral) or 10 mg/kg TEM3.2 via the indicated treatment route. IV intravenous, IP intraperitoneal, SC subcutaneously. The data shown is from a single experiment with 12 animals for each group. The result for each animal is shown as a dot. […] The statistically significant differences were determined using ANOVA, followed by Dunnett’s multiple comparison test. […]
The Cell Titer Blue assay was performed to evaluate the cell viability according to the instructions of the manufacturer (Promega, USA). […] The fluorescence was measured at 590 nm by exciting at 560 nm with a ClarioStar plate reader (BMG Labtech, Germany).

[4] = tested on: human erythrocytes; test: Hemolysis; details: 2 h at 37 °C, normalized to 1% triton
Protocol: (§1) Fig. 7 Evaluation of in vivo use of peptides that induce the aggregation of TEM beta-lactamase. A Lysis of human erythrocytes (hemolysis) was assessed in the presence of the indicated concentrations of TEM3.2 for 2 h at 37 °C, and normalized to the value obtained with 1% of the detergent triton. […] B Cell viability using the CellTiter Blue assay of HeLa cells treated for 24 h with the indicated concentrations TEM 3.2 at 37 °C. […] DAPI (4’,6-diamidino-2-phenylindole) is blue, while CellMask is red. D Experimental workflow of the in vivo model used in this study. E–G Bacterial load of indicated organs of female C57BL/6JAX mice with a urinary tract infection with E. coli strain UZ_TEM104, treated with 30 mg/kg penicillin (oral) as well 10 mg/kg tazobactam (oral) or 10 mg/kg TEM3.2 via the indicated treatment route. IV intravenous, IP intraperitoneal, SC subcutaneously. The data shown is from a single experiment with 12 animals for each group. The result for each animal is shown as a dot. […] The statistically significant differences were determined using ANOVA, followed by Dunnett’s multiple comparison test. […] Source data are provided as a Source Data file.

[5] = tested on: uro-pathogenic E. coli strain (UPEC strain blaTEM-1); test: Urinary tract infection model, bacterial load in bladder, kidney, ureter; type: in vivo, female C57BL/6JAX mice; parameters: bacterial load, Ureters / bacterial load, Bladder / bacterial load, Kindey: unit: CFU per mL of tissue extract; details: each column one mouse
Protocol: as §1
We also performed a tolerability study using a dose escalation method by administering the peptide at 2, 5, 10, 15, and 20 mg/kg via different parenteral routes: intravenous (IV), intraperitoneal (IP), and subcutaneous (SC) in female C57BL/6JAX mice, aged 8–10 weeks (Suppl Table 4). […] Vehicle alone (0.9% NaCl) was also administered (IV). After 24 h the animals were sacrificed and the bacterial load in the bladder, kidney, and ureter was quantified by determining the number of colony-forming units (CFU) per mL of tissue extract (Fig. 7E–G).
To test the efficacy of the peptides, a urinary tract infection model was performed as described previously. Briefly, female C57BL/6Jax mice female mice were deprived of water for at least 1 h. Then, they were anesthetized by IP administration of the mixture of ketamine (Nimatek)/xylazine (XYL-M 2% BE-V170581). The bladder of the mouse was massaged with fingers and pushed down gently to expel the remaining urine. Mice were slowly inoculated urethrally with 50 µL of a bacterial suspension slowly over 5 s to avoid vesicoureteral reflux (10^8 CFU/ mouse) using a sterile catheter (pediatric intravenous-access cannula (GS391350)). The catheter was removed directly after inoculation. After surgery, the animals were visually monitored for full recovery. After 1 h post inoculation, all mice received Ampicillin (30 mg/kg_PO-orally) and at the same time 3 groups of animals received the peptides via different administration routes (10 mg/kg_IV—intravenous; IP—intraperitoneal or SC—sub-cutaneous) and the positive control groups received tazobactam (10 mg/kg, PO). The negative control groups received vehicle or saline (IV administration). 2 h post inoculation, all mice received a second injection with the same concentration of each treatment as explained above. Twenty-four hours post-infection, mice were sacrificed and organs (kidney, bladder, ureter) were washed with PBS and were homogenized (Thermo Savant FastPrep FP120 Homogenizer/24 s). The homogenized tissues were serially diluted and cultured on blood agar plates. The plates were incubated overnight at 37 °C, and the number of bacteria was measured by CFU value.

T1 sequence (P62593 24-286 limits assumed): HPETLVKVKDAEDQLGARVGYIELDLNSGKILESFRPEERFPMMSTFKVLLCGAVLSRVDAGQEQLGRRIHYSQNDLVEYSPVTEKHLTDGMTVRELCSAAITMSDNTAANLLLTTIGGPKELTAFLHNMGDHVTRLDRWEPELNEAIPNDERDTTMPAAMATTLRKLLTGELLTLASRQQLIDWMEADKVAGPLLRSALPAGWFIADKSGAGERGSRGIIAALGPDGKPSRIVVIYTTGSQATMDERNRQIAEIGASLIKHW

Substance: Ac-RLTAFLHNRRPRLTAFLRQRR-NH2 [TEM3.2]
- induction of aggregation of recombinantly purified TEM beta-lactamase (in words) [1]: potent inducer of the aggregation of the TEM beta-lactamase
- cells with non-lethal aggregation (pFTAA shift) ([2]; 50 μg/mL TEM3.2, 4 h in PBS): > 99%
- shift in pFTAA and PI channels (in words) ([2]; 4 h, penicillin G 400 μg/mL and/or TEM3.2 50 μg/mL): a shift of the bacterial population only in the pFTAA channel
- cytotoxicity, Cell Titer Blue (in words) [3]: not cytotoxic
- hemolysis (in words) [4]: not hemolytic to human erythrocytes
- bacterial load, Bladder ([5]; group IP): 833.333 (2×) and 4533.33 and 14866.7 and 4066.67 and 2533.33 and 900 and 1 (2×) and 37733.3 and 300 (2×)
- bacterial load, Kindey ([5]; group IP): 3566.67 and 133.333 and 27833.3 and 2666.67 and 1 (5×) and 4300 and 1700 and 2600
- bacterial load, Ureters ([5]; group IP): 6333.33 and 33.3333 and 9933.33 and 233.333 and 1 (5×) and 1166.67 and 133.333 and 2500
- bacterial load, Bladder ([5]; group IV): 9200 and 1 (3×) and 6366.67 and 4033.33 and 1500 and 566.667 and 2833.33 and 266.667 and 66.6667 and 1833.33
- bacterial load, Kindey ([5]; group IV): 1333.33 and 50433.3 and 24133.3 and 22233.3 and 400 (2×) and 1 (2×) and 29 and 6466.67 and 333.333 and 1900
- bacterial load, Ureters ([5]; group IV): 10766.7 and 11733.3 and 2766.67 and 2633.33 and 1 (4×) and 15700 and 9366.67 and 766.667 and 233.333
- bacterial load, Bladder ([5]; group Sub): 20866.7 and 166.667 and 3866.67 and 32100 and 933.333 and 300 and 1 (2×) and 1600 and 1500 and 366.667 and 133.333
- bacterial load, Kindey ([5]; group Sub): 18933.3 and 1 (6×) and 5766.67 and 66.6667 and 3300 and 4300 and 466.667
- bacterial load, Ureters ([5]; group Sub): 5500 and 1 (6×) and 5866.67 and 13433.3 and 2800 and 333.333 and 900
